Measured values taken from patent publication US7728131B2, “Amide derivative and medicine” (Nippon Shinyaku Co., Ltd., priority 2003, dated 2010).
Like-named read-outs stand apart in the source and are kept apart here.

Tests used:
[1] = tested on: U937 cells; assay: Cell growth inhibitory effect, U937 cells (Cell counting Kit-8, 72 hours); format: cell-based; settings: Homo sapiens, U-937, BCR-ABL negative U937 cells, WST-8 absorbance
Protocol: The plate was incubated in a CO2 incubator overnight. […] The plate was incubated in a CO2 incubator. After 72 hours, 20 μl

[2] = tested on: K562 cells; assay: Cell growth inhibitory effect, K562 cells (Cell counting Kit-8, 72 hours); settings: for IC50: Homo sapiens, K562, 72 h, read-out: K562 cells (IC50 value: μM); for Ratio (U937 cells/K562 cells): IC50 U937 cells / IC50 K562 cells;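 on all read-outs here: Read-out is formazan absorbance at 450 nm from WST-8 reduction after a 3 h color reaction, with K562 and U937 cells grown in 96-well plates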
Protocol: of Cell counting Kit-8 (5 mmol/l WST-8, 0.2 mmol/1 1-Methoxy PMS, 150 mmol/l NaCl) (manufactured by Dojindo) was added to each well. After reaction for color development in a CO2 incubator for 3 hours, an absorbance of formazan, generated by reduction of WST-8 was determined at 450 nm using Multi-level counter ARVOsx (manufactured by Wallac).
K562 cells and U937 cells (purchased from American Type Culture Collection) were cultured in a RPMI-1640 medium (manufactured by Sigma) containing 10% (v/v) fetal calf serum (FCS) (manufactures by Sigma) (RPMI-1640/FCS). K562 cells and U937 cells were seeded at a density of 5000 cells/100 μl/well and 4000 cells/100 μl/well in each of 96-hole-plate (manufactured by costar), respectively. The plate was incubated in a CO2 incubator overnight. […] The resulting solution was diluted 500 times in a RPMI-1640/FCS medium and then 100 μl of the diluent was added in a well. The plate was incubated in a CO2 incubator. After 72 hours, 20 μl

[3] = continuation of Table 3, read-out: U937 cells (IC50 value: nμM)
[4] = read-out: U937 cells (IC50 value: μM)

Compound	melting point	IC50 [1, 3]	IC50 [2]	IC50 [1, 4]	Ratio (U937 cells/K562 cells) [2]
Cc1ccc(NC(=O)c2ccc(CN3CCNCC3)c(C(F)(F)F)c2)cc1Nc1nccc(-c2cncc(Br)c2)n1.Cl [Example 40, 4-(1-piperazinylmethyl)-3-trifluoromethyl-N-{3-[4-(5-bromopyridin-3-yl)pyrimidin-2-ylamino]-4-methylphenyl}benzamide hydrochloride]	176 to 182 °C (dec.)	4.4 µM	0.0039 µM	–	1128
Cc1ccc(NC(=O)c2ccc(CN3CC[C@@H](CN(C)C)C3)c(C(F)(F)F)c2)cc1Nc1nccc(-c2cncnc2)n1.Cl [Example 81, 4-[(S)-3-(dimethylaminomethyl)pyrrolidin-1-ylmethyl]-3-trifluoromethyl-N-{4-methyl-3-[4-(5-pyrimidinyl)pyrimidin-2-ylamino]phenyl}benzamide hydrochloride]	114 to 122 °C (dec.)	> 100 µM	0.0047 µM	–	>27778
Cc1ccc(NC(=O)c2ccc(CN3CCNCC3)c(C(F)(F)F)c2)cc1Nc1cc(-c2cccnc2)ccn1.Cl [Example 42, 4-(1-piperazinylmethyl)-3-trifluoromethyl-N-{4-methyl-3-[4-(3-pyridyl)pyridin-2-ylamino]phenyl}benzamide hydrochloride]	190 to 195 °C (dec.)	1.4 µM	0.0068 µM	–	206
Cc1ccc(NC(=O)c2ccc(OC3CCN(C)CC3)c(C(F)(F)F)c2)cc1Nc1nccc(-c2cncnc2)n1.Cl [Example 10, 4-(1-methylpiperidin-4-yloxy)-3-trifluoromethyl-N-{4-methyl-3-[4-(5-pyrimidinyl)pyrimidin-2-ylamino]phenyl}benzamide hydrochloride]	≥ 275 °C	–	0.0021 µM	8.1 µM	3857
Cc1ccc(NC(=O)c2ccc(CN3CCN(C)CC3)c(C(F)(F)F)c2)cc1Nc1cc(-c2cncnc2)ncn1.Cl [Example 33, 4-(1-methylpiperazin-4-ylmethyl)-3-trifluoromethyl-N-{4-methyl-3-[6-(5-pyrimidinyl)pyrimidin-4-ylamino]phenyl}benzamide hydrochloride]	203 to 207 °C (dec.)	11 µM	0.0084 µM	–	1310

More lines, in order of falling IC50 [2], values ahead:

melting point	IC50 [1, 3]	IC50 [2]	IC50 [1, 4]	Compound	Ratio (U937 cells/K562 cells) [2]
142 to 152 °C (dec.)	16 µM	0.0096 µM	–	Cc1ccc(NC(=O)c2ccc(CN3CC(CN(C)C)C3)c(C(F)(F)F)c2)cc1Nc1nccc(-c2cncnc2)n1.Cl [Example 54, 4-[3-(dimethylaminomethyl)azetidin-1-ylmethyl]-3-trifluoromethyl-N-{4-methyl-3-[4-(5-pyrimidinyl)pyrimidin-2-ylamino]phenyl}benzamide hydrochloride]	1667
168 to 169 °C (dec.)	–	0.0079 µM	2 µM	COc1cc(C(=O)Nc2ccc(C)c(Nc3nccc(-c4cncc(Br)c4)n3)c2)ccc1CN1CCN(C)CC1.Cl [Example 14, 3-methoxy-4-(4-methylpiperazin-1-ylmethyl)-N-{3-[4-(5-bromopyridin-3-yl)pyrimidin-2-ylamino]-4-methylphenyl}benzamide hydrochloride]	253
193 to 199 °C	1.6 µM	0.0014 µM	–	Cc1ccc(NC(=O)c2ccc(CN3CCC[C@H](N)C3)c(C(F)(F)F)c2)cc1Nc1nccc(-c2cncnc2)n1.Cl [Example 62, (+)-4-((S)-3-aminopiperidinomethyl)-3-trifluoromethyl-N-{4-methyl-3-[4-(5-pyrimidinyl)pyrimidin-2-ylamino]phenyl}benzamide hydrochloride]	1143
